# Reference: paper PMC6930524, “A Prospective Repurposing of Dantrolene as a Multitarget Agent for Alzheimer’s Disease” (Molecules, 2019)
# Legend:
# [1] = target: T1, BChE from human serum (hBChE) (Homo sapiens, UniProt P06276); assay: hBChE inhibition, Ellman's spectrophotometric assay; type: biochemical; details: mean ± SEM of three independent experiments
# T1 construct: BChE from human serum (50 U/mg); purchased Sigma-Aldrich Europe (Milan, Italy); host or cells: human serum
# Procedure: An already published method was used to apply the Ellman’s spectrophotometric assay to the 96-well plate technique. […] Experiments were performed in duplicate in transparent, flat-bottomed polystyrene 96-well microtiter plates, and readings made with Tecan Infinite M1000 Pro instrument.
# [2] = ABTS radical scavenging assay; type: physicochemical; details: compound at 0.2·[ABTS+]
# Source text: Starting from these evidences, we tested DAN in two in vitro models of radical scavenging activity, i.e., the 1,1-diphenyl-2-picryl-hydrazyl (DPPH) and 2,2′-azinobis-(3-ethylbenzothiazoline-6-sulfonic acid) (ABTS) free radical production. Both generate stable nitrogen radicals showing high absorption in visible spectrum, thus allowing easy and straightforward spectrophotometric measures. […] It can be assumed that the antioxidant activity of DAN is independent from its radical scavenging properties.
# Already published protocols for DPPH and […] radical scavenging were used. The scavenging of the radical DPPH^·, or the monocation radical ABTS^·+, were determined by measuring the loss of absorbance at 515 or 755 nm, respectively. Samples were prepared in clear polystyrene flat-bottomed 96-well microplates. […] A preliminary absorbance reading at 755 nm allowed to determine the actual ABTS^·+ concentration (normally 60–70 μM; extinction coefficient ε = 12,000) and set the final concentration of inhibitors to 0.2[ABTS^·+]. 215 μL of ABTS^·+ solution were mixed with 35 μL of stock solution of inhibitors and the decrease in absorbance was monitored. Antioxidant activity was determined from Equation (2) as the percentage of radical production of inhibitor containing samples, compared with control: % radical production = 100 × ABSsample/ABScontrol(2)
# [3] = target: T2, native CAC (mitochondrial rat liver extract) (Rattus norvegicus, UniProt P97521); assay: Transport activity of native CAC from mitochondrial extract reconstituted into liposomes; type: biochemical; details: after 30 min of incubation; concentration range 1–200 μM; read-out: EC50 of activation of native CAC
# T2 construct: Mitochondrial rat liver extract (0.3 mg proteins in 3% Triton X-100) containing native CAC was reconstituted into liposomes; from tissue; host or cells: rat liver mitochondrial Triton X-100 extract
# T2 sequence (P97521 1-301): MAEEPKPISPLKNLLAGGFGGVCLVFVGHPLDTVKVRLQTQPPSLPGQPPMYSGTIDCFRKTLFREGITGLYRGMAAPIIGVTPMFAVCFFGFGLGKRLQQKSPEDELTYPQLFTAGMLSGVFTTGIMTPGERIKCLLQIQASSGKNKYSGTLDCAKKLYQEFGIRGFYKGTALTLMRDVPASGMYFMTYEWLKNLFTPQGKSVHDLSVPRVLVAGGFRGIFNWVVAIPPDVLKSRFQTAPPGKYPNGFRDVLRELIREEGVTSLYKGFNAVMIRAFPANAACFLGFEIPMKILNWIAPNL
# Procedure: To detect the effect of DAN on native CAC, mitochondrial extract was reconstituted into liposomes and transport activity was measured adding various concentrations of compound. In Figure 7A, the dose–response curve is shown. […] Thus, the effect of different concentrations of DAN was tested also on the purified recombinant wild-type (WT) CAC carrier reconstituted into liposomes, measuring the antiport rate of carnitine.
# Mitochondrial rat liver extract (0.3 mg proteins in 3% Triton X-100) containing native CAC was reconstituted into liposomes by removing the detergent from the mixed micelles through a hydrophobic ion-exchange column containing the resin Amberlite XAD-4, as described previously. […]
# Before starting the transport activity, proteoliposomes were passed through a Sephadex G-75 column (0.7 cm diameter; 15 cm height; Pharmacia, Milan, Italy) to remove the external substrate. […] Finally, the external substrate was removed by chromatography on Sephadex G-75 columns (0.7 cm diameter; 10 cm height) and intraliposomal radioactivity was measured by a liquid scintillation counter (Perkin Elmer, Milan, Italy).
# EC50 values were calculated using AATBioquest EC50 calculator [60]. […]
# [4] = set-up: method as in PMID 11735355; details: cited from earlier work
# T1 sequence (P06276 29-602): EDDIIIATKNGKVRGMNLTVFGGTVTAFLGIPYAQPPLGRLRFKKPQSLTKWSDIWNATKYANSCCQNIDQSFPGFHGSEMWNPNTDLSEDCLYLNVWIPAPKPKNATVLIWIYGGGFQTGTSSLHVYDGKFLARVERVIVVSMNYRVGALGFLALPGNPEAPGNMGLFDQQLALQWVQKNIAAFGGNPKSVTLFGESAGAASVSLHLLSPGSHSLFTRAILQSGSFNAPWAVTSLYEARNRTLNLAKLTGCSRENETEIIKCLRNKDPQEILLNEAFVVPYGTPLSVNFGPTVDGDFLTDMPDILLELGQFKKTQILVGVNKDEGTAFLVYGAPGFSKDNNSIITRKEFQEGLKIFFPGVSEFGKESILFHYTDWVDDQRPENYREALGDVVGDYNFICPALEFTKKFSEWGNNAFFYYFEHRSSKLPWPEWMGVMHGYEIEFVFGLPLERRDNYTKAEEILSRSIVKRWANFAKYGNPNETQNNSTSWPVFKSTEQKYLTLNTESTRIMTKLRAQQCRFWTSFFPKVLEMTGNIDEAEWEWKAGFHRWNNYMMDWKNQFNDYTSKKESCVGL
smiles,measurement,setting,value
O=C1CN(/N=C/c2ccc(-c3ccc([N+](=O)[O-])cc3)o2)C(O)=N1 [Dantrolene],hBChE IC50,[1],No inhibition
same,ABTS radical scavenging activity,[2],no activity
same,EC50,[3],18 ± 5 µM
same,"antioxidant potency, Fe3+/Fe2+ reduction",[4],high antioxidant potency
